The subject of one assay is T47D cells. Briefly: γH2AX immunostaining (DNA damage) in T47D cells. It counts as cell-based, human. The method, then:
Immunostaining: Cells were grown in clearing media for 48 h and plated on 20 mm coverslip in 12 well plates with a density of 2×10^5 cells/well. […] Cells were washed with 1×PBS, blocked in 2% BSA/PBS with 0.1% Triton-X 100 for 1 hr at room temperature (RT), incubated overnight with γH2AX antibody (Cell Signaling #9718 S) or ERα antibody (Santa Cruz Biotechnology #sc-8002) at 4° C. and 1 hour with secondary antibody. S9.6: Cells were fixed in ice-cold 100% methanol for 10 min at −20° C., permeabilized in 100% acetone for 1 min at RT, blocked for 30 min in saline sodium citrate pH 7 (SSC, 4×), 3% BSA, 0.1% Triton-X and incubated with S9.6 (Kerafast #ENH001) 2 hr at RT followed by 1 h with secondary antibody. If indicated, slides were treated with RNase H (NEB #M0297L) for 4 hr at 37° C. prior to incubation with primary antibody. Stained cells were mounted with Vectashield mounting medium containing DAPI (Vector Laboratories #H-1200). Slides were imaged at 60× (immersion oil) with Nikon A1 Spectral Confocal microscope. Analysis of γH2AX and S9.6 intensity per nucleus or foci per nucleus was calculated using Nikon analysis software, where DAPI was used as a mask for the nucleus.

For the next assay, the system named is TFF1. Briefly: RT-qPCR of estrogen-responsive gene TFF1 in T47D cells. It counts as cell-based, human. Conditions: fulvestrant 1 μM with 10 nM E2, T47D. On the procedure: RT-qPCR: RNA from T47D cells, MCF-7 Cells or flash-frozen 4th mammary gland was isolated with TRIzol (Thermofisher Scientific #15596018) and Direct-zol RNA MiniPrep Plus (Zymo Research #R2072). cDNA was prepared with Protoscript II First Strand cDNA Synthesis Kit (New England Biolabs #E6560S) and qPCR for TFF1, progesterone receptor (PGR) and Amphiregulin (AREG) was performed on CFX96 Real-Time System thermocycler (Bio-Rad) using primers in Table 1.
Background: In qPCR the cycle at which signal appears reflects the starting amount.

A further assay has as its system ER. Conditions: compared to BP3; cited from earlier work.

As for `C[C@]12CC[C@@H]3c4ccc(O)cc4C[C@@H](CCCCCCCCC[S+]([O-])CCCC(F)(F)C(F)(F)F)[C@H]3[C@@H]1CC[C@@H]2O` (stereo partly shown) [fulvestrant], the “effect on E2-induced γH2AX intensity” value with T47D cells (fulvestrant 1 μM with 10 nM E2, T47D) is “significantly reduced”. The “effect on γH2AX intensity in response to 5 μM BP3 and 5 μM PP” value with T47D cells (fulvestrant 1 μM, T47D) was “inhibited”. Also, in the assay with TFF1, the “effect on transcriptional responses (TFF1) to E2” value is on record as “blocked”.
As to `O=C(c1ccccc1)c1ccc(O)cc1O` [2,4-diOH-BP], the ER transactivation potential result in the assay on ER was “higher ER transactivation potential compared to BP3”.

Source of the values: patent US12590950B2, “Methods for predicting ER-mediated DNA damage” (UNIVERSITY OF MASSACHUSETTS, priority 2019, dated 2026).
